{"source": "paper PMC3812159", "about": "“A Comparative Analysis of the Ubiquitination Kinetics of Multiple Degrons to Identify an Ideal Targeting Sequence for a Proteasome Reporter” (PLoS ONE, 2013)", "key": {"[1]": {"tested_on": "endogenous proteases and peptidases found in the S100 lysates", "quoted_text": "The in vitro ubiquitination assay was carried out at the indicated times at 37°C in a total reaction volume of 25 µL containing assay buffer (10 mM Tris-HCl pH 7.6 and 5 mM MgCl2) with 2 mM DTT, 20 µg/mL ubiquitin aldehyde (Boston Biochem), 400 µg/mL methylated ubiquitin (Enzo Life Sciences), 1×ATP energy regenerating solution (ATP-ERS, Boston Biochem), 100 µM of the proteasome inhibitor MG-132 (EMD Chemicals), 2 mg/mL HeLa S100 cytosolic lysates as the source of E1, E2, and E3 enzymes, 750 ng of indicated peptide substrate, and inhibitors Complete ULTRA and PhosSTOP (Roche). Reactions were halted by addition of 2× tricine sample buffer (Bio-Rad) and subsequent boiling. Samples were loaded onto SDS page gels (precast 16.5% Mini PROTEAN Tris-Tricine, Bio-Rad) using 1× tris-tricine running buffer and visualized with a Typhoon Imager (GE Healthcare Life Sciences). Gels were quantified using ImageJ (US National Institute of Health) by comparing sample intensity to unreacted parent peptide intensity, which is not depicted in the gels.\nUbiquitin pull down assays were performed similarly to the in vitro ubiquitination assay as described above, with the exception of a total volume of 100 µL and 4.2 µg of peptide substrate. At the end of the indicated times, samples were incubated with Control-Agarose beads (LifeSensors), diluted in TBS-T buffer (20 mM Tris-HCl pH 8.0, 150 mM NaCl, and 0.1% v/v Tween-20), for 60 min on a tube rotator at 4°C. Samples were subsequently centrifuged at 1800×g for 5 min to pellet and remove control beads. The supernatant was transferred to solution of Agarose-TUBES1 (LifeSensors) diluted in TBS-T and incubated overnight on a tube rotator at 4°C. Ubiquitin-bound beads were washed 5× with TBS-T and then the samples were eluted off of the bead with 2× tricine sample buffer, boiled for 5 min, and then isolated by centrifugation for 5 min at 13000×g. Samples were loaded onto an SDS PAGE gel, electrophoresed, visualized and quantified as described above.\nThe series of ordinary differential equations were solved in MATLAB using ODE15s and the boundary conditions defined in equations S1–S6. Kinetic rate constants were determined using a Markov Chain Monte Carlo (MCMC) algorithm in MATLAB by minimizing the cumulative sum of the squared deviations (cSSD), as defined by equations S8–S9, between the calculated and experimental data similar to previous work by Cirit et. al. [23].\nTo accomplish this objective, a kinetic model was developed to describe the step-wise ubiquitination of the degron-based substrates. The goal of this model was to both determine the reaction kinetics for ubiquitin transfer to the degron-based substrates and distinguish polyubiquitination from multi-monoubiquitination. […] Each step in the reaction was described by a corresponding rate constant (k1–k9). Due to the presence of the deubiquitinating enzyme (DUB) inhibitor ubiquitin aldehyde, substrate deubiquitination was neglected. Further, the proteasome inhibitor MG-132 was added at an appropriate amount to neglect proteasome-mediated degradation of the substrates."}, "SCF^βTrCP": {"tested_on": "SCF^βTrCP", "settings": "published substrate; optimized test tube reaction with excess E1, E2, and E3 ligases, no competing peptidases; cited from earlier work", "text": "While there exist kinetic studies of specific E3 ligases, [47], [48] and individual degrons there has not been a comprehensive analysis of ubiquitination kinetics of multiple degrons in a single study. The presented work allowed for the calculation of rate constants for multiple degrons in a single cell line, effectively comparing the ubiquitination kinetics of different E3 ligase targets."}, "[2]": {"tested_on": "HeLa S100 cytosolic lysates as the source of E1, E2, and E3 enzymes", "test": "Ubiquitin pull down assay with methylated ubiquitin, multi-monoubiquitination kinetic model", "assay_type": "biochemical", "settings": "ratio of fitted rate constants, >1 favours ubiquitination, <1 degradation", "text": "A second model based on substrate multi-monoubiquitination was developed and evaluated. This model assumed that the generation of di-, tri-, and tetra-ubiquitinated species was the result of multiple methylated ubiquitins being conjugated to the multiple available lysines found on the degron-based substrate (Figure 3a). As opposed to the polyubiquitination model, the multi-monoubiquitination model accurately fit the data for all eight degron-based substrates (Figure 3b–d, Figure S4 in File S1, Table 2). Using this model, kinetic rate constants for all ubiquitination (k1 for mono-, k2 for di-, k3 for tri-, and k4 for tetra-) and peptidase-dependent degradation steps (Table 2) were calculated. The multi-monoubiquitination model nicely corresponded to the observed results in Figure 2. […] The model also captured the preference for di-ubiquitination of the Cyclin D1 degron (k2 is two-fold greater than k1) and the equal preference of mono- and di-ubiquitination states found in the HIF-1α degron (k1 of 2.6 and k2 of 3.0). Further, the similar behavior and observed kinetics for IFNAR and TAZ degrons were mostly likely due to the fact that these degrons are recognized by the same E3 ligase, SCF^βTrCP (Table 1). To test the robustness of the multi-monoubiquitination model, a ninth substrate based on the degron from the protein β-Catenin was assessed. This substrate was selected because it is ubiquitinated by the same E3 ligase as TAZ and IFNAR1, SCF^βTrCP. The model accurately fit the data for the multi-monoubiquitination of the β-Catenin degron-based substrate with similar rate constants compared to the TAZ and IFNAR1-based substrates (Table 2). Finally, it was important to assess the validity of the model by addressing the relative goodness of fit between the experimental data and the model predictions as determined from the multi-monoubiquitination model. For this particular analysis it was decided to calculate the sample Pearson correlation coefficient (Eq. S10 in File S1), a widely used metric to measure the dependence between two variables. A correlation coefficient was calculated between the model predictions and experimental data for mono-, di-, tri-, and tetra-ubiquitinated substrate for all nine degron-based substrates (Table S1 in File S1). As per convention, a positive value approaching 1 corresponds to a very good fit, which is observed for all nine substrates indicating a good fit between model and data."}, "Hdm2": {"biological_target": "T1, Hdm2 (Homo sapiens, UniProt Q00987)", "T1 construct": "purchased Enzo Life Sciences", "T1 sequence (Q00987 whole entry)": "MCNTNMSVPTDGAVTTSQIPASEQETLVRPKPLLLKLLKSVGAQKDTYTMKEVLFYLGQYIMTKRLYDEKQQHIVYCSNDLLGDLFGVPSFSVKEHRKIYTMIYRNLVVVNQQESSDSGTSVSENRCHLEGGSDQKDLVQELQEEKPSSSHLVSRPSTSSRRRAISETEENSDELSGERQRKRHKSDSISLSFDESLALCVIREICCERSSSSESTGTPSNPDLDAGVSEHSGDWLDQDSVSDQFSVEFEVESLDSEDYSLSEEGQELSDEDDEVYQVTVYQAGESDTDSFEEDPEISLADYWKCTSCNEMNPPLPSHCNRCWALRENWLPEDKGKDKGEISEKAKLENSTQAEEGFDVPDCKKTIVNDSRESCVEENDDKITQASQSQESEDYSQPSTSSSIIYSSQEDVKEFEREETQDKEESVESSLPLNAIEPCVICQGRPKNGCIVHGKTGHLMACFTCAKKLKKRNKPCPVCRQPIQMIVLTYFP", "test": "Cell-free ubiquitination assay", "assay_type": "biochemical", "settings": "1 µM Hdm2, 1 µM Ube1, 10 µM UbcH5b, 10 µM peptide, wild type ubiquitin, 2 hours at 30°C", "description": "Samples were run on gels and imaged as described above.\nFigure 5 Variations in E3 ligase activity result in fluxuations in degron-based substrate ubiquitination. (A) To evaluate the impact of different levels of E3 ligase activity, the four top performing degron-based substrates (β-Catenin, Bonger, iNOS, and p53) were incubated in lysates from four different cell lines (HeLa, U937, THP-1, and HL60) in the ubiquitin pull down assay. Further, the assay was supplemented with wild type ubiquitin to examine polyubiquitin chain formation. All reaction mixtures were incubated for 2 hours at 37°C prior to continuation with the pull down assay. (B) The effects of a NEDD8 inhibitor (MLN-4924) and an E1 inhibitor (PYR-41) were examined on the TAZ-based substrate (a target of the SCF^βTrCP E3 ligase). The ubiquitin pull down was performed as previously described with the reactions incubated for 2 hours with the listed inhibitor concentrations at 37°C prior to continuation with the pull down assay. (C) A cell-free ubiquitination assay was performed on the p53-based substrate using an enzymatic cascade culminating with 1 µM Hdm2 and supplemented with wild type ubiquitin. Lane 1 contains all assay components, lane 2–4 were control experiments removing a member of the E1–E3 enzymatic cascade. […]"}}, "data": [{"molecule": "KAWQQQSYLDSGIHSGATTTAPK(FAM)KKK [β-Catenin, fluorescein-tagged degron-based peptide substrate from β-Catenin, E3 ligase SCF^βTrCP]", "values": [{"measurement": "k6, rate constant for peptidase-dependent degradation of mono-ubiquitinated substrate", "setting": "[1]", "result": "0.1 (1/min)*10^3"}, {"measurement": "k7, rate constant for peptidase-dependent degradation of di-ubiquitinated substrate", "setting": "[1]", "result": "0.1 (1/min)*10^3"}, {"measurement": "k8, rate constant for peptidase-dependent degradation of tri-ubiquitinated substrate", "setting": "[1]", "result": "1.0 (1/min)*10^3"}, {"measurement": "k9, rate constant for peptidase-dependent degradation of tetra-ubiquitinated substrate", "setting": "[1]", "result": "3.0 (1/min)*10^3"}, {"measurement": "rate constant for β-Catenin ubiquitination previously reported", "setting": "SCF^βTrCP", "result": 0.28, "unit": "min⁻¹"}, {"measurement": "k1/k5, mono-ubiquitination vs. degradation of unmodified substrate", "setting": "[2]", "result": 1.55}]}, {"molecule": "Cc1ccc2ccc(C(Nc3ccccc3)c3ccccc3)c(O)c2n1", "note": "(centres unmarked) [NSC-66811]", "values": [{"measurement": "effect of inhibitor on Hdm2-dependent ubiquitination of the p53-based substrate", "setting": "Hdm2; inhibitor 1 µM dose", "result": "pronounced decrease"}]}, {"molecule": "CN(C)CCCNc1c2c(=O)n(C)c(=O)nc-2n(C)c2ccccc12", "note": "[HLI-373]", "values": [{"measurement": "effect of inhibitor on Hdm2-dependent ubiquitination of the p53-based substrate", "setting": "Hdm2; inhibitor 1, 10 µM", "result": "No decrease"}]}]}
